The subject of one assay is DIPG-IV cells. Put plainly: Cleaved Caspase 3/7 assay in DIPG-IV cells expressing ERK5 constructs. The note with it: 500 nM; DIPG-IV cells expressing ERK5-HA or ERK5-HA T733E vs empty vector. The class given is cell-based, human.
The subject of assay [1] is DIPG-007, DIPG-IV, SF8628 and DIPG-13p cells. Kind of assay: Direct Trypan-Blue automated cell count of DIPG cells. Type of assay: cell-based, human. Here is the method: Direct cell counts were performed using the Countess II FL Automated Cell Counter (ThermoFisher Scientific). Alamar blue viability (ThermoFisher Scientific) and the 5-bromo-2′-deoxyuridine (BrdU) incorporated cell proliferation assay (Cell Signaling Technology Cat #6813) were performed using the manufacturer's standard protocol. EC50 curve analysis was performed using raw fluorescent Alamar blue values that were inputted into PRISM 7.0. Drug concentrations were log 10 transformed and values normalized to percent viability with respect to vehicle treated cells. EC50 values were interpolated from a log inhibitor vs. normalized response with variable slope using a least square fit model.

For a further assay, the system named is NSCs. Kind of assay: Alamar blue viability EC50 in neural stem cells. The class given is cell-based, human. How it is done:
(§1) Human Neural Stem Cells (H9 hESC-Derived) were purchased from Invitrogen and grown in DMEM/F12 containing penicillin/streptomycin/amphotericin B (1% vol/vol) supplemented with N2 (2% vol/vol; Invitrogen), EGF (20 ng/ml; Invitrogen), and FGF-2 (20 ng/ml; Invitrogen). DIPG cell lines (all with the H3K27M mutation) SU-DIPG-IV (DIPG-IV), SU-DIPG-13p (DIPG-13p), and HSJD-DIPG-007 (DIPG-007) were grown and passaged in DIPG medium as previously reported (Grasso et al., Nature medicine 2015; 21:555-9; Nagaraja et al., Cancer cell 2017; 31:635-52 e6; Vinci et al., Nature medicine 2018). SF8628 and immortalized NHAs were grown in DMEM (Invitrogen) supplemented with 10% FBS (Invitrogen). All cell lines were confirmed by STR profiling and tested mycoplasma negative by PCR. All tumor-derived cell lines used are described in Table 2.
(§2) Direct cell counts were performed using the Countess II FL Automated Cell Counter (ThermoFisher Scientific). Alamar blue viability (ThermoFisher Scientific) and the 5-bromo-2′-deoxyuridine (BrdU) incorporated cell proliferation assay (Cell Signaling Technology Cat #6813) were performed using the manufacturer's standard protocol. EC50 curve analysis was performed using raw fluorescent Alamar blue values that were inputted into PRISM 7.0. Drug concentrations were log 10 transformed and values normalized to percent viability with respect to vehicle treated cells. […]
For orientation: Resazurin is reduced to fluorescent resorufin, in cell work by metabolically active cells.

Assay [2] deals with T1, ERK5 (Homo sapiens, UniProt Q13164). Put plainly: Western blot of ERK5 phosphorylation sites in DIPG cells. The class given is cell-based. Also noted: endogenous in cells; host or cells: DIPG-007 and DIPG-IV cells. As to conditions: DIPG-007 and DIPG-IV cells. How it is done:
Cell pellets were lysed in PLC lysis buffer containing protease and phosphatase inhibitors (Roche Inc.). Protein lysates were quantified using the bicinchoninic acid (BCA) assay (Pierce Chemical Co., Rockford, Ill.). 30 μg of total protein lysate was loaded in 10% SDS-PAGE gels and electrophoresed. Proteins were transferred to PVDF membranes using a semi-dry transfer apparatus (Bio-Rad). Membranes were blocked for one hour and probed for various proteins overnight in 5% non-fat milk or 5% BSA in Tris Buffered Saline Solution, 0.5% Tween-20 (TBST) or Phosphate Buffered Saline Solution with 0.5% Tween-20 (PBST). Membranes were washed for 5 mins in TBST (3×) and incubated with horseradish peroxidase-conjugated antibodies specific for the primary antibody (BioRad Laboratories, Inc., CA, USA). Binding was detected using Chemiluminescence Reagent Plus (PerkinElmer Inc., MA, USA).

Assay [3] relates to DIPG-007, DIPG-IV, SF8628, and DIPG-13p cells. Kind of assay: Alamar blue viability EC50 dose response in H3K27M DIPG cells. The class given is cell-based. As to conditions: Homo sapiens, 96 h, SF8628, DIPG-13p cells, lowest of the ERK5 inhibitors tested. Here is the method: as §1, §2
Assay [4] concerns the target T1, ERK5. Put plainly: In vitro kinase assay of purified recombinant ERK5 and MYC. Also noted: purchased ThermoFisher Scientific A32872. The class given is biochemical. As to conditions: 200 μM ATP, 30 minutes at 30° C. Here is the method:
Purified active recombinant ERK5 protein was purchased from ThermoFisher Scientific (Cat #A32872) and purified recombinant MYC was purchased from Abcam (Cat #ab84132). Purified ERK5 and MYC were resuspended in 40 μl of 1× kinase buffer supplemented with 200 μM ATP, 0.25 μg substrate, and 1.0 μg purified recombinant and active kinase. Samples were incubated in the presence or absence of ERK5 inhibitors for 30 minutes at 30° C. The reaction was terminated with 20 μl 3×SDS sample buffer. Samples were then boiled at 100° C. for 5 minutes and then evaluated by western blotting using a phospho MYC ser62 antibody (1:1000). 1× Kinase Buffer recipe: 25 mM Tris (pH 7.5), 5 mM β-glycerophosphate, 2 mM DTT, 0.1 mM Na3VO4, 10 mM MgCl2.

For the next assay, the system named is DIPG-13p cells xenograft. Kind of assay: DIPG-13p orthotopic xenograft model. The class given is in vivo, mice. The note with it: 50 mg/kg, 2 cycles of 5 days on 2 days off; DIPG-13p xenograft. How it is done:
Paraffin embedded blocks were cut in 5 μm sections. Slides were processed as follows: de-waxed in xylene followed by rehydration in a standard alcohol series. Antigen retrieval was by pressure cooking for 20 minutes in citrate buffer (pH 6.0), followed by blocking of endogenous peroxidase in 3% H2O2. The antibodies were added and incubated overnight at 4° C. Antibodies were detected using a secondary-HRP labeled mouse or rabbit antibody detection system (Dako EnVision+ System-HRP cat #k4401, cat #k4403) followed by addition 3,3′-Diaminobenzidine (DAB) chromagen (Vector Labs) for visualization. Sections were counter-stained with hematoxylin (Fisher Scientific Inc., Canada) and slides dehydrated in 70, 80, and 100% ethanol and xylene. Slides were cover slipped and mounted in Permount (Fisher Scientific Inc.). Antibodies and concentrations for IHC are as follows: Ki67 (1:100, Dako, cat #F7268). All images were captured on a Leica DM 100 microscope using Leica Application Suite Software (Switzerland, Version 3.8.0).
All animal procedures were carried out ethically according to animal user protocols approved by Institutional Animal Care Committee (IACUC). 4-6 week-old non-obese diabetic severe combined immune deficiency male or female mice (NOD-SCID-Prkdc^scid) were injected with 1×10^5 SU-DIPG-13p cells or 1×10^5 SF8628 DIPG cells. […]

We go through 1 molecule from US20220031710A1, “USE OF ERK5 INHIBITORS FOR TREATING GLIOMAS IN PEDIATRIC SUBJECTS” (UNIVERSITY OF PITTSBURGH - OF THE COMMONWEALTH SYSTEM OF …, priority 2019, published 2022).

Broadly, the EC50 is the concentration that produces a half-maximal response. High values mean a need for much substance, low ones an effect from little substance.

T1 sequence (Q13164 whole entry): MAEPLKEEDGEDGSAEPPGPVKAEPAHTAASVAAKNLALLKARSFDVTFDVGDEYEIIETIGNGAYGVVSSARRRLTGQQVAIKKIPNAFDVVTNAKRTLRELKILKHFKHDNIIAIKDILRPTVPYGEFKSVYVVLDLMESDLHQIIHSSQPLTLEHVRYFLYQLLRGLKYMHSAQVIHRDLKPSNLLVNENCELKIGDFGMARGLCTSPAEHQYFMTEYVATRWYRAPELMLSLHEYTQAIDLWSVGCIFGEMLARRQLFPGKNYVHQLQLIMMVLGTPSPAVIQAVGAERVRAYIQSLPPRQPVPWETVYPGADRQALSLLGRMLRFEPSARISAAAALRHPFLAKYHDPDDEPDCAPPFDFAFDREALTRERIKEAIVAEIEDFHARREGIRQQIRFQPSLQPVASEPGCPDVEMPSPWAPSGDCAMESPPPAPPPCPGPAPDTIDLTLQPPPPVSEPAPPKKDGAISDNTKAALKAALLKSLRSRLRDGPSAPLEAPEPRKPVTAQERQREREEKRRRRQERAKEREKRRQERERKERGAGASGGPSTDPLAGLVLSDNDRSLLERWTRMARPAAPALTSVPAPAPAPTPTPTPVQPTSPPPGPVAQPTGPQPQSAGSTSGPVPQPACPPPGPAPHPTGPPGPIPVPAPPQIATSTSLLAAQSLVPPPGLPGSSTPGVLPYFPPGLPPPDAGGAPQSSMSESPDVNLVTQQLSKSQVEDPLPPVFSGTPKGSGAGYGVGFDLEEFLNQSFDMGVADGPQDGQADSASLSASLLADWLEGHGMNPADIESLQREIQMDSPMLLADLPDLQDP

For `CCOc1cc(C(=O)N2CCC(N3CCN(C)CC3)CC2)ccc1Nc1ncc2c(n1)N(C1CCCC1)c1ccccc1C(=O)N2C` [ERK5-IN-1, 11-cyclopentyl-2-[[2-ethoxy-4-[[4-(4-methyl-1-piperazinyl)-1-piperidinyl]carbonyl]phenyl]amino]-5,11-dihydro-5-methyl-6H-pyrimido[4,5b][1,4]benzodiazepin-6-one], in the assay on DIPG-IV cells, the “cleaved Caspase 3/7 levels” value is on record as “reduced cleaved Caspase 3/7 levels”. Moreover, in assay [1] (500 nM, 9 days of treatment, DIPG-007, DIPG-IV, SF8628 cells, vs vehicle), the cell number entry is recorded as “significant decreases in cell number”. In assay [1] (DIPG-13p and SF8628 cells), the cell growth result is reported as “diminished cell growth”. Besides, the “ERK5-IN-1 EC50 values” in the assay with NSCs (NSCs and NSCs over expressing wildtype H3, compared to H3K27M DIPG and hemispheric pGBM lines) is “higher”; in the assay on NSCs (NSCs expressing H3K27M) it was “significantly lower”. In addition, on ERK5 [2], the “ERK5 Thr218/Tyr220 phosphorylation (regulated by MEK5)” value was “did not inhibit”. The “ERK5 auto-phosphorylation and ERK5 activity sites (Ser731 and Thr733)” value at ERK5 [2] (at 100 nM) is “inhibit”. The molecule also registered a half-maximal effective concentration (EC50) in assay [3] of 500 to 1000 nM. In addition, the “Phosphorylation of MYC(S62)” value at ERK5 [4] is on record as “inhibited”. In the assay on DIPG-13p cells xenograft, this molecule registered a median survival of 30 days.
